Like-named read-outs stand apart in the source and are kept apart here.
Legend:
plasma inosine = plasma inosine in Lewis Rats after intraperitoneal injection (HPLC); assay type: in vivo; conditions: 30 mg (IA), twice per day, 10% DMSO aqueous carrier, vs vehicle controls, other compounds per procedure of Example 16
Procedure: A pharmaceutical composition for intraperitoneal injection is prepared for testing the compound (IA). An intraperitoneal injection solution containing the compound (IA) is dissolved in an aqueous carrier that contains ten percent DMSO.
The compound (IA) is intraperitoneally injected into Lewis Rats via the test composition of Example 15 to provide 30 mg of the compound (IA), with an injection given twice per day. Controls are used, which receive only the vehicle. At specific times after administration, the animals are sacrificed and plasma samples are prepared. The plasma is extracted with cold 0.5N HClO4 and neutralized with solid NH4 HCO3. After removal of perchlorate salts, the extract is subjected to HPLC on a reversed phase column (Spherisorb ODSI).
Compounds prepared as in Examples 10-14 are each made into a pharmaceutical formulation in accordance with the preparation of Example 15 and the resultant injectable solutions are tested in accordance with the procedure of Example 16.

[1] = molecular target: T1, purine nucleoside phosphorylase (PNP) (Bos taurus, UniProt P55859); assay: PNP enzyme assay, radiochemical formation of [14C]-hypoxanthine from [14C]-inosine, calf spleen enzyme; assay type: biochemical; conditions: for enzyme-inhibition activity: tested as in Example 8
T1 construct: using calf spleen as the enzyme source; from tissue; host or cells: calf spleen
T1 sequence (P55859 1-289): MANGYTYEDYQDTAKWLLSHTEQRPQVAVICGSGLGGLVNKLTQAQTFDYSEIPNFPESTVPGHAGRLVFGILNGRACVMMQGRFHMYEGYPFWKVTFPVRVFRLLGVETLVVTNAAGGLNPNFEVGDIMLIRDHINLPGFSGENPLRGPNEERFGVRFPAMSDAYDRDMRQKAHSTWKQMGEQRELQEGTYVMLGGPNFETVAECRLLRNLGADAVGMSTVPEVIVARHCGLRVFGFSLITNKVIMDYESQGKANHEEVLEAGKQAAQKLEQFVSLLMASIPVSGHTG

SMILES: Nc1nc2c(C3=CCCCC3)c[nH]c2c(=O)[nH]1 [IA, 2-amino-7-(1-cyclohexenyl)-3H,5H-pyrrolo [3,2-d]pyrimidin-4-one]
- increase in plasma inosine (plasma inosine): significant increase in plasma inosine

SMILES: Nc1nc2c(C3CC=CCC3)c[nH]c2c(=O)[nH]1 (centres unmarked) [IC, 2-amino-7-(3-cyclohexenyl)-3H, 5H-pyrrolo[3,2-d]-pyrimidin-4-one]
- enzyme-inhibition activity ([1]; calf spleen PNP): significant enzyme-inhibition activity

SMILES: Nc1nc2c(C3C=CCCC3)c[nH]c2c(=O)[nH]1 (centres unmarked) [IB, 2-amino-7-(2-cyclohexenyl)-3H, 5H-pyrrolo[3,2-d]pyrimidin-4-one]
- enzyme-inhibition activity ([1]; calf spleen PNP): significant enzyme-inhibition activity

SMILES: Nc1nc2c(C3CCCCC3)c[nH]c2c(=O)[nH]1 [ID, 2-amino-7-(cyclohexyl)-3H,5H-pyrrolo[3,2-d]-pyrimidin-4-one]
- IC50 [1]: 145 µM
- IC50 ([1]; 1 mM phosphate, calf spleen PNP, read-out: IC50): 1.3 µM

— patent publication US4985434A, “7-substituted derivatives of 2-amino-3H,5H-pyrrolo(3,2-d)pyrimidin-4-ones and pharamceutical uses and compositions containing the same” (Biocryst, Inc., priority 1989, dated 1991)
